19 molecules from patent publication US5256668A, “Aminopyrimidine derivatives as antiviral agents for respiratory syncytial virus” (American Home Products Corporation, priority 1993, dated 1993) can be followed below.

Data set [1] can be described thus: Cellular toxicity, minimal toxic dose that inhibits all growth, A549. The format is cell-based. The note with it: human, a549 cells. How it is done:
(§1) The cytotoxic activities for the compounds of Examples 1 and 2, amantadine and ribavirin were determined in five different cell lines.

The nature of data set [2]: Cellular toxicity (TD50) in the anti-RSV test. The note with it: human, hep-2 cells.
Data set [3] deals with respiratory syncytial virus RSVA2 (subgroup A). In words: Anti-RSV activity (RSVA2) in HEp-2 cells, crystal violet staining of cytopathic effect. In kind it is cell-based. The note with it: for EC50 / IC50: human respiratory syncytial virus; for EC50: read-out: Anti-RSVA2 ED50; for activity against subgroup A (RSVA2): in words. On the technique in general: Cytopathic effects are the visible damage that an infection or toxin causes in cultured cells.

The subject of data set [4] is respiratory syncytial virus RSV-9320 (subgroup B). In words: Anti-RSV activity (RSV-9320) in HEp-2 cells. In kind it is cell-based. The note with it: for IC50: human respiratory syncytial virus; for activity against subgroup B (RSV-9320): in words.
A short description of data set [5]: Cellular toxicity, minimal toxic dose that inhibits all growth, Vero. In kind it is cell-based. The settings on record: monkey, vero cells. The protocol:
as §1

Data set [6] in a line: Cellular toxicity, minimal toxic dose that inhibits all growth, MDCK. The format is cell-based, Canine. The note with it: dog. How it is done:
as §1

Data set [7] is described as follows: Cellular toxicity, minimal toxic dose that inhibits all growth, HEp-2. The format is cell-based. The note with it: human, hep-2 cells. How it is done:
as §1

Data set [8] can be described thus: Cellular toxicity, minimal toxic dose that inhibits all growth, MRC-5. In kind it is cell-based. The note with it: human, mrc-5 cells. The protocol: as §1
The next data set can be described thus: in vitro. The note with it: human, hep-2 cells.
Another data set deals with FluA/WSN. Description: Anti-flu activity against FluA/WSN in MDCK cells. In kind it is cell-based, influenza A virus.
Data set [9] is described as follows: Solubility at 100 μg/ml (footnote of Table 4). The format is physicochemical. The note with it: footnote a of Table 4.
Where [10] appears, read: Table 4, A549, read-out: Minimal Toxic Dose that Inhibits All Growth, A549.
The mark [11] stands for this setting: HEp-2, read-out: Median Inhibitory Concentration (IC50), RSV-9320.
The mark [12] stands for this setting: Table 4, Vero, read-out: Minimal Toxic Dose that Inhibits All Growth, Vero.
The mark [13] stands for this setting: Table 4, MDCK, read-out: Minimal Toxic Dose that Inhibits All Growth, MDCK.
[14] abbreviates: Table 4, HEp-2, read-out: Minimal Toxic Dose that Inhibits All Growth, HEp-2.
Setting [15] is: Table 4, MRC-5, read-out: Minimal Toxic Dose that Inhibits All Growth, MRC-5.
Where [16] appears, read: 72 h, Table 2, HEp-2 cells, compound added 2 h before infection, 3 days.
Where [17] appears, read: Table 3, HEp-2 cells, read-out: Median Inhibitory Concentration (IC50), RSVA2.
[18] abbreviates: Table 3, HEp-2 cells, read-out: Median Inhibitory Concentration (IC50), RSV-9320.

In brackets after ≈: the same amount, converted by molar mass. Read-outs that look alike come from different tables or passages of the source.

`NC12CC3CC(CC(C3)C1)C2` [Amantadine, amantadine, reference compound]: the MCC was more than 100 µg/mL in [1] (setting [10]); 100 µg/mL in [5] (setting [12]); more than 100 µg/mL in [6] (setting [13]); 100 µg/mL in data set [7] (setting [14]); 100 µg/mL in data set [8] (setting [15]). Moreover, in data set [2], the CC50 (usually the concentration at which the toxic effect on the cells reaches its halfway point) at 72 h turned out to be 100 µg/mL (≈ 661 µM). Besides, in data set [3] (HEp-2, 72 h), the EC50 is 50 µg/mL (≈ 331 µM). For the same molecule, the IC50 in data set [4] (setting [11]) is 16 µg/mL (≈ 106 µM).

On to `Cc1nc(=O)c(C#N)c(NCCc2cccnc2)[nH]1` [Compound 1], for which the MCC is more than 100 µg/mL in data set [1]; more than 100 µg/mL in data set [5]; more than 100 µg/mL in data set [6] (mdck); more than 100 µg/mL in [7]; 100 µg/mL in data set [8]. Also, the “activity against subgroup A (RSVA2)” value in [3] (HEp-2 cells) is recorded as “active”. Also, the EC50 in data set [3] (setting [16]) was 0.05 µg/mL (≈ 0.196 µM). In addition, the IC50 in data set [3] (setting [17]) and in data set [4] (setting [18]) was not above 0.16 µg/mL in each case. The molecule further gave a half-maximal cytotoxic concentration (CC50) at 72 h in the data set “in vitro” of more than 16 µg/mL. The “anti-flu activity against FluA/WSN” value in the data set on FluA/WSN is “inactive”. The “activity against subgroup B (RSV-9320)” value in data set [4] (HEp-2 cells) is given as “active”.

In the case of `Cc1nc(=O)c(Br)c(NCc2cncc(C#N)c2)[nH]1` [Compound 2], the MCC was more than 50 µg/mL in data set [1]; more than 50 µg/mL in [5]; more than 50 µg/mL in data set [6] (mdck); 50 µg/mL in data set [7]; more than 50 µg/mL in data set [8]. In addition, the “activity against subgroup A (RSVA2)” value in data set [3] (HEp-2 cells) was “active”. Also, in data set [3] (setting [16]), the EC50 was 0.05 µg/mL (≈ 0.156 µM). The IC50 in [3] (setting [17]) and in data set [4] (setting [18]) was not above 0.16 µg/mL in each case. In addition, in “in vitro”, the half-maximal cytotoxic concentration (CC50) at 72 h is more than 16 µg/mL. Also, the “anti-flu activity against FluA/WSN” value in the data set on FluA/WSN was “inactive”. The “activity against subgroup B (RSV-9320)” value in data set [4] (HEp-2 cells) was “active”. Besides, the “solubility at 100 μg/ml” value in data set [9] is given as “Not completely soluble”.

Take `CC(C)(C)c1nc(O)c(C#N)c(NCc2cccnc2)n1` [Compound 3]: the EC50 in [3] (setting [16]) was in the range of 1.6 to 5 µg/mL (≈ 5.65 to 17.6 µM). Also, the half-maximal cytotoxic concentration (CC50) at 72 h in “in vitro” was more than 16 µg/mL.

In the case of `Cc1nc(O)c(C#N)c(NCCc2ccncc2)n1` [Compound 4], the EC50 in data set [3] (setting [16]) came to 0.16 µg/mL (≈ 0.627 µM). The molecule further yielded a cytotoxic concentration (CC50) at 72 h in “in vitro” of more than 16 µg/mL.

Consider `Cc1nc(=O)c(C#N)c(NCc2ccccc2)[nH]1` [Compound 5], for which, in data set [3] (setting [16]), the EC50 worked out at 1.6 µg/mL (≈ 6.66 µM). Moreover, the CC50 at 72 h in the data set “in vitro” was more than 16 µg/mL.

Take `Cc1nc(=O)c(C#N)c(NCCN(C)C)[nH]1` [Compound 6]: in data set [3] (setting [16]), the EC50 came to 5 µg/mL (≈ 22.6 µM). In “in vitro”, this molecule had a half-maximal cytotoxic concentration (CC50) at 72 h of more than 16 µg/mL.

In the case of `Cc1nc(=O)c(C#N)c(NCCN2CCCC2)[nH]1` [Compound 7], the EC50 in [3] (setting [16]) amounted to 1.6 µg/mL (≈ 6.47 µM). This molecule came in with a 50% cytotoxic concentration (CC50) at 72 h in “in vitro” of 16 µg/mL (≈ 64.7 µM).

Consider `Cc1nc(=O)c(Br)c(NCCc2cccnc2)[nH]1` [Compound 8], for which the EC50 in data set [3] (setting [16]) came to 0.005 µg/mL (≈ 0.0162 µM). This molecule also registered a CC50 at 72 h in “in vitro” of more than 16 µg/mL.

In the case of `CCCN(CCC)CCNc1[nH]c(C)nc(=O)c1Br` [Compound 9], the EC50 in data set [3] (setting [16]) worked out at 1.6 µg/mL (≈ 4.83 µM). In addition, in the data set “in vitro”, the CC50 at 72 h is more than 16 µg/mL.

`Cc1nc(=O)c(Br)c(NCc2ccc3c(c2)OCO3)[nH]1` [Compound 10]: in data set [3] (setting [16]), the EC50 came to 0.05 µg/mL (≈ 0.148 µM). In the data set “in vitro”, this molecule had a CC50 at 72 h of more than 16 µg/mL.

With `Cc1nc(=O)c(Br)c(NCc2ccsc2)[nH]1` [Compound 11], the EC50 in data set [3] (setting [16]) stood at 0.5 µg/mL (≈ 1.67 µM). In the data set “in vitro”, this molecule came in with a cytotoxic concentration (CC50) at 72 h of more than 16 µg/mL.

`C=CCOc1ccc(CCNc2[nH]c(C)nc(=O)c2Br)cc1OC` [Compound 12]: the EC50 in [3] (setting [16]) is 0.5 µg/mL (≈ 1.27 µM). For the same molecule, the half-maximal cytotoxic concentration (CC50) at 72 h in the data set “in vitro” is more than 16 µg/mL.

For `Cc1nc(=O)c(Cl)c(NCc2cncc(Br)c2)[nH]1` [Compound 13], the EC50 in data set [3] (setting [16]) is 0.016 µg/mL (≈ 0.0485 µM). In addition, the half-maximal cytotoxic concentration (CC50) at 72 h in “in vitro” was more than 16 µg/mL.

Take `COc1ccc(Br)cc1CCNc1[nH]c(C)nc(=O)c1Br` [Compound 14]: the EC50 in data set [3] (setting [16]) came to 0.5 µg/mL (≈ 1.2 µM). The CC50 at 72 h in “in vitro” was more than 16 µg/mL.

For the molecule `Cc1nc(=O)c(F)c(NCc2cccnc2)[nH]1` [Compound 15], the EC50 in data set [3] (setting [16]) was 0.05 µg/mL (≈ 0.213 µM). Moreover, the CC50 at 72 h in “in vitro” is more than 16 µg/mL.

With `Cc1nc(=O)c(Br)c(NCCN(C)C)[nH]1` [Compound 16], in [3] (setting [16]), the EC50 was found to be 0.16 µg/mL (≈ 0.582 µM). Also, in the data set “in vitro”, the CC50 at 72 h was more than 16 µg/mL.

Take `Cc1nc(NCc2cncc(Br)c2)c(Br)c(=O)[nH]1` [Compound 17]: the EC50 in [3] (setting [16]) was 0.016 µg/mL (≈ 0.0428 µM). The half-maximal cytotoxic concentration (CC50) at 72 h in “in vitro” was more than 16 µg/mL.

Regarding `NC(=O)c1ncn([C@@H]2O[C@H](CO)[C@@H](O)[C@H]2O)n1` [Ribavirin, ribavirin, reference compound], the MCC in [1] (setting [10]) came out at 100 µg/mL; in data set [5] (setting [12]), 100 µg/mL; in [6] (setting [13]), 100 µg/mL; in data set [7] (setting [14]) it was 50 µg/mL; in [8] (setting [15]), 100 µg/mL. This molecule registered a CC50 at 72 h in [2] of 50 µg/mL (≈ 205 µM). Besides, in data set [3] (HEp-2, 72 h), the EC50 fell in the range of 1.6 to 5 µg/mL (≈ 6.55 to 20.5 µM). Also, the IC50 is 1.6 to 5 µg/mL (≈ 6.55 to 20.5 µM) in data set [3] (HEp-2, read-out: Median Inhibitory Concentration (IC50), RSVA2) and 5 µg/mL (≈ 20.5 µM) in [4] (setting [11]).
